How the values were obtained:
[1] = system: NFκB; test: NFκB reporter assay (THP1-XBlue-MD2-CD14 cells) stimulated with LPS, SEAP readout; conditions: peptide 50 μg/ml, LPS 5 ng/ml, overnight (FIG. 1)
[2] = system: mice, lethal endotoxemia; test: Mouse model of lethal endotoxemia (LPS 15 mg/kg); format: in vivo
Description: FIG. 27A: The mice were treated with SP16 or vehicle and challenged with a lethal dose of LPS (15 mg/kg) and assessed for survival over 72 hours.

RRRVKFNKPFVFLMIEQNTKRRR (RRRVKFNKPFVFLMIEQNTKRRR; peptide derivative) [SP21]
NFκB activity (NFκB inducible SEAP in supernatant) [1]: NFkB inhibition increased as well relative to SP16

R R R V K F N K P F V F L M R R R (RRRVKFNKPFVFLMRRR; peptide derivative) [SP22]
NFκB activity (NFκB inducible SEAP in supernatant) [1]: NFκB activity was significantly reduced

R R R V R F N R P F L R R R (RRRVRFNRPFLRRR; peptide derivative) [SP32]
NFκB activity (NFκB inducible SEAP in supernatant) [1]: could not be restored with the Poly arginine flanks

V K F N K P F V F L M (VKFNKPFVFLM; listed as Homo sapiens) [SP20]
NFκB activity (NFκB inducible SEAP in supernatant) [1]: did not have an inhibitory effect

V K F N K P F V F L M I E Q N T K (VKFNKPFVFLMIEQNTK; listed as Homo sapiens) [SP16, 24]
NFκB activity (NFκB inducible SEAP in supernatant) [1]: capable of reducing NFκB activity | survival between 30 and 42 hours [2]: 100% | survival by 72-hrs ([2]; p<0.001 vs. vehicle): 60%

V R F N R P F L (VRFNRPFL; peptide derivative) [SP31]
NFκB activity (NFκB inducible SEAP in supernatant) [1]: anti-inflammatory activity of the peptide was lost

From patent publication US11779630B2, “Peptides and methods of using the same” (SERPIN PHARMA, LLC, priority 2020, dated 2023)
